According to ChEMBL document CHEMBL1201862, “PubChem BioAssay data set” (2004):
Calls of active or inactive are those of the source.

How the values were obtained:
Major prion protein = Major prion protein (Homo sapiens, UniProt P04156); format: functional, cell-based
[1] = molecular target: T1, 1-phosphatidylinositol 4,5-bisphosphate phosphodiesterase gamma-1 (Homo sapiens, UniProt P19174); test: Counterscreen for inhibitors of phospholipase C isozymes (PLC-B3): Fluorescence-based biochemical high throughput dose response assay to identify inhibitors of phospholipase C isozymes (PLC-gamma1).
T1 sequence (P19174 whole entry): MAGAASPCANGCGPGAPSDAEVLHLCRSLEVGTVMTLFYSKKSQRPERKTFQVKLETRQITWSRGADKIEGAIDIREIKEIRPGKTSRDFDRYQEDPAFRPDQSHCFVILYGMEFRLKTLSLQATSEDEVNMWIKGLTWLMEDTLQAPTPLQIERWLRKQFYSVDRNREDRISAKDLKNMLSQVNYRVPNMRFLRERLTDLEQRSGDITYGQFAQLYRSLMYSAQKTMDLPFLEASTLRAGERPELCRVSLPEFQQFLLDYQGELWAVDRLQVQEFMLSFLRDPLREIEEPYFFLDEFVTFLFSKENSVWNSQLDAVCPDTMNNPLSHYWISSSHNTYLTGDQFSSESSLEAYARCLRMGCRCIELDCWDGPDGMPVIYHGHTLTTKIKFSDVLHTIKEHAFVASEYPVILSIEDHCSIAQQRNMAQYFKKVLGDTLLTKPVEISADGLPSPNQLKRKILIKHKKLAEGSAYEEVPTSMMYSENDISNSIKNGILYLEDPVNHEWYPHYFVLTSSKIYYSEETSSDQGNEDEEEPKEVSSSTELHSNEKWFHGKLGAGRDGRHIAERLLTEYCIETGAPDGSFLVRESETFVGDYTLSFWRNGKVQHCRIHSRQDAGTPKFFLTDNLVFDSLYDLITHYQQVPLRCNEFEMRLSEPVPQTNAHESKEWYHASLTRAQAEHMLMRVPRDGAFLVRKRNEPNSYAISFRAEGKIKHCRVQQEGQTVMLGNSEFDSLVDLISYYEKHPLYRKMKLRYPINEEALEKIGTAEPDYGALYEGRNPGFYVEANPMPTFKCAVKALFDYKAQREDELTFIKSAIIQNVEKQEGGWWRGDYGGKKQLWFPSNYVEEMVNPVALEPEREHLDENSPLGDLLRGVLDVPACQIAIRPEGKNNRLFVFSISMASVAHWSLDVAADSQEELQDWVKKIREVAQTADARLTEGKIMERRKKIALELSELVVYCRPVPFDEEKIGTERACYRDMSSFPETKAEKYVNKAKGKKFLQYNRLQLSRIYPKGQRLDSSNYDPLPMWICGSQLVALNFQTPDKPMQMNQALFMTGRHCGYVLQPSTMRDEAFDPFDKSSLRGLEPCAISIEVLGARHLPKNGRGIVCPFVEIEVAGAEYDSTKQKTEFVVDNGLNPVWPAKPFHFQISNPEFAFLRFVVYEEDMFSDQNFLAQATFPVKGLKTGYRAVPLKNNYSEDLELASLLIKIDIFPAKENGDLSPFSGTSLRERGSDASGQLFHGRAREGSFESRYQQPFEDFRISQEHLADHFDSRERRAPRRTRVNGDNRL

[2] = molecular target: T2, 1-phosphatidylinositol 4,5-bisphosphate phosphodiesterase beta-3 (Homo sapiens, UniProt Q01970); test: Fluorescence-based biochemical high throughput dose response assay to identify inhibitors of phospholipase C isozymes (PLC-B3).
T2 sequence (Q01970 whole entry): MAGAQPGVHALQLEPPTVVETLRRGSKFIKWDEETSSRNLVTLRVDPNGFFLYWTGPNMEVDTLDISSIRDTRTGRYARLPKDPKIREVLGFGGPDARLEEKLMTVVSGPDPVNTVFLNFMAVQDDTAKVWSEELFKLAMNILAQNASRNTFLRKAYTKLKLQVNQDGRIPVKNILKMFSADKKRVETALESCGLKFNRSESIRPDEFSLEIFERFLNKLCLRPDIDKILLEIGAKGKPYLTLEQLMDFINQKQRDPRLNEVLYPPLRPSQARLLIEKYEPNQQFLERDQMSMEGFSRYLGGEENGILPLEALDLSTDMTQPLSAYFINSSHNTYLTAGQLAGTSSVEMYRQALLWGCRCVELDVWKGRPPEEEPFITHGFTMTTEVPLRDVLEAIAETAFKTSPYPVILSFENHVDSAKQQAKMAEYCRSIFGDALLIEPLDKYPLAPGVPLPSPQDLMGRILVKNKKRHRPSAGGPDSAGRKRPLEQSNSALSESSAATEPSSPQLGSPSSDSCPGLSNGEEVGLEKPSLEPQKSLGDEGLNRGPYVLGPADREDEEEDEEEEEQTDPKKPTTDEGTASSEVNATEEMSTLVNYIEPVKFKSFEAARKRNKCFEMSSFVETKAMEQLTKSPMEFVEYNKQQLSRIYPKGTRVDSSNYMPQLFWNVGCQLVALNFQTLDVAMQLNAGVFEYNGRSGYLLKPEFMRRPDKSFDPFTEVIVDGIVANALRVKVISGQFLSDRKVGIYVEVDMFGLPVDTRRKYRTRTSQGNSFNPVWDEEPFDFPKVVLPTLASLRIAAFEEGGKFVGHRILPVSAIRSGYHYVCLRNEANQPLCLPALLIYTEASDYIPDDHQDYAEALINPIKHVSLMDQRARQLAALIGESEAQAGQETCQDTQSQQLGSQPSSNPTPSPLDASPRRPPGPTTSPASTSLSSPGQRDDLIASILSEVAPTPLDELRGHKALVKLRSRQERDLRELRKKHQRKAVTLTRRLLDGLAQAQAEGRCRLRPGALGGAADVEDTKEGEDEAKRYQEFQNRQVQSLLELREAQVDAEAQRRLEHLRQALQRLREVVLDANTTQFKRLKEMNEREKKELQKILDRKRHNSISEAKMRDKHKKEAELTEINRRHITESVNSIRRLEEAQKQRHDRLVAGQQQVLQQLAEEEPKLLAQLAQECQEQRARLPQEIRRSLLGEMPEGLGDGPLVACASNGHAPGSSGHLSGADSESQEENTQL

[3] = NIH3T3 cell viability loss – ATP luminescence, mouse fibroblasts, counter-screen, dose response (AID 2010); format: functional, cell-based;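 also: cells exposed to compound for about 90 hours before reading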
BJ [4] = test: cells; format: functional, cell-based; details: Homo sapiens
[5] = molecular target: T3, Replicative DNA helicase DnaB (Mycobacterium tuberculosis, UniProt P9WMR3); test: DnaB intein splicing inhibitors, dose response, biochemical, cell-free fluorescence (AID 449749); format: functional
T3 sequence (P9WMR3 whole entry): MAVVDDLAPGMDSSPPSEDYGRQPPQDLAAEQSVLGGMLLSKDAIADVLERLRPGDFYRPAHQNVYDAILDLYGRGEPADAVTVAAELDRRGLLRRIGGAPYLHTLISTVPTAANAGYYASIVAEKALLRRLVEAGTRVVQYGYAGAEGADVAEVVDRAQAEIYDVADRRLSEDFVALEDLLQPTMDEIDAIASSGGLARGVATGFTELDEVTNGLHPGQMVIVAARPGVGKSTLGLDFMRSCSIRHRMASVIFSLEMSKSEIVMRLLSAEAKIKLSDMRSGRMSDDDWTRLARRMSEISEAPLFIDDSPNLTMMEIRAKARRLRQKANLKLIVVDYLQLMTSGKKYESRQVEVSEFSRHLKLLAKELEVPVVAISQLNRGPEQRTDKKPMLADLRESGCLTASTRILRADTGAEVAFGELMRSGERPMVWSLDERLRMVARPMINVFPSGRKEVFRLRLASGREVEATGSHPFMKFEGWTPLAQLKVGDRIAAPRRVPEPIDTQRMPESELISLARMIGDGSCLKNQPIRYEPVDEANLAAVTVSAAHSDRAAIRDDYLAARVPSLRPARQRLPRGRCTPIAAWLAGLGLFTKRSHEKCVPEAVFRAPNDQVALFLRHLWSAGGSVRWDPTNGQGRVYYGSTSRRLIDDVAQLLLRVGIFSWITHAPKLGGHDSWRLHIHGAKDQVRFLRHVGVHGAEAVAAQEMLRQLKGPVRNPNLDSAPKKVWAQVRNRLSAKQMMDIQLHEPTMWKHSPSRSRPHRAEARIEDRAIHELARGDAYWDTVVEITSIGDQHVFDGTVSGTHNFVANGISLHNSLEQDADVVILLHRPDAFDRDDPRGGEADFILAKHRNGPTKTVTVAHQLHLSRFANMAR

Paired box protein Pax-8 = Paired box protein Pax-8 (Homo sapiens, UniProt Q06710); test: PAX8 transcriptional activity inhibition in RMG-I – RMG-I cells, luciferase, cherry-pick, dose response (AID 687027); format: functional, cell-based;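 also: luciferase reporter driven by Pax8 target thyroperoxidase promoter measured by SteadyGlo luminescence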
[6] = DRD fibroblast viability loss – cell-based, non-viral oncogenic, luminescence, dose response (AID 1934); format: functional; details: Homo sapiens
[7] = general cell-killing toxicity readout – plate reader, dry powder samples, cytotoxicity control for PAX8 inhibitor project, dose response (AID 743021); format: functional, cell-based
BJ [8] = test: BJ-TERT fibroblast viability loss – cell-based, RAS-independent, luminescence, dose response (AID 1933); format: functional; details: Homo sapiens
[9] = Trypanosoma cruzi growth suppression in host cells – NIH3T3 host cells, beta-gal luminescence, confirmation (AID 2044); format: functional, cell-based;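 also: intracellular parasites grown in NIH/3T3 mouse fibroblasts as host cells; luminescent beta-galactosidase reporter signal from transgenic T. cruzi replicating inside host cells; inhibitors lower the luminescence signal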
BJ [10] = test: BJ-TERT-LT-ST fibroblast viability loss – cell-based, RAS-independent, luminescence, dose response (AID 1935); format: functional; details: Homo sapiens;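 also: BJ fibroblasts immortalized with TERT plus LT and ST oncogenes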
Protein RecA = molecular target: T4, Protein RecA (Mycobacterium tuberculosis, UniProt P9WHJ3); test: Fluorescence Cell-Free Homogeneous Dose Retest to Identify Inhibitors of RecA-Intein Splicing Activity. [Related pubchem assays (depositor defined):AID2097, AID2223, AID489010, AID492950]; format: functional
T4 sequence (P9WHJ3 whole entry): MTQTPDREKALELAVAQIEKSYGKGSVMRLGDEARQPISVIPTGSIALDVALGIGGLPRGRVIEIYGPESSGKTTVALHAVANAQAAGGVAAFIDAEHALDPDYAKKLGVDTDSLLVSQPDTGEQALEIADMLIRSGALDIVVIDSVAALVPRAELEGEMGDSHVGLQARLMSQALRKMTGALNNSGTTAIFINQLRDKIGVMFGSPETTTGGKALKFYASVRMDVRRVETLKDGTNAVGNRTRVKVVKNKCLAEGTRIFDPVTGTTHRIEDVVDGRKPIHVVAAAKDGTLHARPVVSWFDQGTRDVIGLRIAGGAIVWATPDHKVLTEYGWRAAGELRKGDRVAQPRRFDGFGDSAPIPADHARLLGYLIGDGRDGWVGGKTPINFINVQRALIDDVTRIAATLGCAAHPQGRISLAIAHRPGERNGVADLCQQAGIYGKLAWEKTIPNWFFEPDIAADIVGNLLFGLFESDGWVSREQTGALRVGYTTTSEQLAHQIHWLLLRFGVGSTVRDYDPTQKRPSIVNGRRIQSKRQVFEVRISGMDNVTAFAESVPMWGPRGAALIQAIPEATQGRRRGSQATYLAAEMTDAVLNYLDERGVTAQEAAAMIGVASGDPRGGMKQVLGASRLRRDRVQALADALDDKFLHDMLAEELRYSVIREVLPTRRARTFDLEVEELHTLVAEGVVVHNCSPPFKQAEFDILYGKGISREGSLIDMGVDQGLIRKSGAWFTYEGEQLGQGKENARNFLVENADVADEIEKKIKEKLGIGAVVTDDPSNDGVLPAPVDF

[11] = OVCAR8 cell viability loss – plate reader, dry powder samples, PAX8 project, dose response (AID 743197); format: functional, cell-based; details: OVCAR-8
[12] = OVCAR-3 cell viability loss – plate reader, dry powder samples, PAX8 inhibitor project, dose response (AID 743044); format: functional, cell-based
[13] = A2780 cell killing – plate reader, dry powder samples, cytotoxicity control, dose response (AID 743046); format: functional, cell-based
[14] = IGROV1 cell killing – plate reader, dry powder samples, PAX8 inhibitor project, dose response (AID 743043); format: functional, cell-based; details: IGROV-1
Caspase-6 = molecular target: T5, Caspase-6 (Homo sapiens, UniProt P55212); test: inhibition of CASP6 peptide cleavage – biochemical, VEID-R110 fluorescence, cherry-pick, dose response (AID 720632)
T5 sequence (P55212 whole entry): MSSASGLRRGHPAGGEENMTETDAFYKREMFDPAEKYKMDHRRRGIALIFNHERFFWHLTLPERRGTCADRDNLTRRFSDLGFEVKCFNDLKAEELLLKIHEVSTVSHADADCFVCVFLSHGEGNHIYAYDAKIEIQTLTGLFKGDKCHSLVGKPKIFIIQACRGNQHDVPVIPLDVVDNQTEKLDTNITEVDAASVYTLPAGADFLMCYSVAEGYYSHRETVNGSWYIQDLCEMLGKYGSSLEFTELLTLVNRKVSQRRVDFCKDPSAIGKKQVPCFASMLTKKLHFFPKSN

Paired box protein Pax-8, sequence (Q06710 whole entry): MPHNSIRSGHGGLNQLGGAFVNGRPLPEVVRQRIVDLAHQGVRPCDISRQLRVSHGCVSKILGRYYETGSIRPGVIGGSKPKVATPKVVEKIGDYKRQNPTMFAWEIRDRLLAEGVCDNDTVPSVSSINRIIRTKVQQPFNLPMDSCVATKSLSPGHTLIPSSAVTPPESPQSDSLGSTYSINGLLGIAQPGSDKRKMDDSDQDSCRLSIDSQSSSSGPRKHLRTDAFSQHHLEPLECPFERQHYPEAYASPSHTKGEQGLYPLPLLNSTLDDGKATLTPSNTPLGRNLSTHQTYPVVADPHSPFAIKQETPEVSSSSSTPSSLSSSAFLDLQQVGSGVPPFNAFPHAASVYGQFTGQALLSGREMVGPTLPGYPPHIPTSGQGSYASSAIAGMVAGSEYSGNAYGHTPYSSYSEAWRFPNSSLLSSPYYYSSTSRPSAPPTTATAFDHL

## COc1ccccc1Cn1c(=S)[nH]c2ccc(F)cc2c1=O
Major prion protein
  IC50: 0.412 µM (active)
cells
  IC50: > 138 µM (inactive)

## CC(C)(C)C(=O)NNC(=O)COc1ccc2ccccc2c1Br
Major prion protein
  IC50: 4.91 µM (active)
cells
  IC50: > 138 µM (inactive)

## COc1ccccc1-c1cc(C(=O)Nc2ccc(F)cc2F)no1
[1]
  IC50: > 122 µM (inactive)
[2]
  IC50: > 122 µM (inactive)

## CC(C)N(CC(=O)Nc1ccc(Cl)cc1C(F)(F)F)C(=O)CCl
[3]
  EC50: 11.9 µM (active)
BJ [4]
  EC50: 16.9 µM (active)
[5]
  AC50: < 0.018 µM (inconclusive)
Paired box protein Pax-8
  AC50: 5.06 µM (active)
[6]
  EC50: 6.62 µM (active)
[7]
  AC50: 10 µM (active)
BJ [8]
  EC50: 6.85 µM (inconclusive)
[9]
  EC50: 3.38 µM (active)
BJ [10]
  EC50: > 150 µM (inconclusive)
Protein RecA
  EC50: 6.09 µM (active)

## COc1ccc(CN(C)C[C@H]2OCCCC[C@@H](C)Oc3ccc(NC(=O)Nc4ccc(F)cc4)cc3C(=O)N([C@@H](C)CO)C[C@@H]2C)cc1
Paired box protein Pax-8
  AC50: 21.7 µM (active)
[11]
  AC50: > 70 µM (inactive)
[7]
  AC50: 51.9 µM (active)
[12]
  AC50: 33.8 µM (active)

## C[C@@H]1CCCCO[C@H](CN(C)Cc2ccc(Cl)c(Cl)c2)[C@@H](C)CN([C@@H](C)CO)C(=O)c2cc(NC(=O)Nc3ccc(F)cc3)ccc2O1
[13]
  AC50: 63.6 µM (active)
Paired box protein Pax-8
  AC50: 6.33 µM (active)
[11]
  AC50: > 70 µM (inactive)
[14]
  AC50: 29.6 µM (active)
[12]
  AC50: 51.3 µM (active)

## O=C(CCc1ccccc1)N[C@H]1[C@@H](OC(=O)c2cnccn2)CCC[C@@]12C(=O)N(Cc1ccccc1)c1ccccc12
[1]
  IC50: > 122 µM (inactive)
[2]
  IC50: > 122 µM (inactive)

## CO[C@H]1CN(C)C(=O)c2cc(NC(C)=O)ccc2OC[C@@H](C)N(C(=O)CC2CC2)C[C@H]1C
Caspase-6
  AC50: 12.1 µM (active)
